In patent US20230340607A1, “COMPOSITIONS AND METHODS FOR DETECTING GENE FUSIONS OF RAD51AP1 AND DYRK4 AND FOR DIAGNOSING AND TREATING CANCER” (UNIVERSITY OF PITTSBURGH-OF THE COMMONWEALTH SYSTEM OF …, priority 2020, published 2023):
Entries after “also recorded” stand apart in the source; their conditions may differ.

Columns and labels:
Type in all cases: cell-based, human
[1] = test system: T47D cells inducibly expressing RAD51AP1-DYRK4 (E9-E2); assay: Clonogenic assay, T47D cells inducibly expressing RAD51AP1-DYRK4 (E9-E2)
Procedure: (§1) Next, the sensitivity of the engineered T47D cells inducibly expressing RAD51AP1-DYRK4 or wtRAD51AP1 to MEK inhibition was assessed. The first FDA approved MEK inhibitor currently under phase II clinical trial for triple negative breast cancer (NCI 9455) called Trametinib was used for MEK inhibition. MEK inhibition requires longer term drug exposure to exert therapeutic effect (Xue, Z. et al. (2018)). Therefore, clonogenic assays on the T47D models were performed to assess the cell viability following trametinib treatment in the presence or absence of doxycycline induction. Since T47D cells express EGFR, the cells were also treated with lapatinib to observe the combinatory effect.
(§2) Clonogenic assay. The E9-E2 and wtRAD51AP1 expressing T47D cells were seeded at a density of 1000 cells/well in a 6-well plate with or without 200 ng/ml doxycycline treatment and incubated for 14-21 days. The colonies were stained with 0.5% crystal violet in 50% ethanol and counted using GelCount (Oxford Optronix Ltd.). The Trametinib (MEKi) and Lapatinib (EGFR/HER2 inhibitor) used for in vitro therapeutic studies were purchased from Selleck Chemicals. To test their therapeutic effects in the engineered T47D cells and other cell lines, cells (5000-10000, depending on the doubling time) were plated in 24-well for 24 hours prior to treatment with growth media containing trametinib, lapatinib or DMSO was replaced every 4 days for approximately 2 weeks. After this, cells were stained with 0.5% crystal violet in water containing 50% ethanol for 15 minutes at room temperature. The area and intensity of each well was measured using Image J. with Colony Area Plug In.

[2] = test system: MDAMB361 cells; assay: Clonogenic assay, MDAMB361 cells
Procedure: (§3) Since MDAMB361 is a HER2 positive cell line we also assessed the therapeutic effect of lapatinib treatment alone or in combination with trametinib.
as §2

[3] = test system: MAP3K1 protein level and JNK-JUN phosphorylation; assay: Western blot of engineered T47D cells after trametinib: MAP3K1/JNK/JUN; conditions: 0.5uM trametinib, 24 hours
Procedure: (§4) Compensative HER2/PI3K/AKT and MAP3K1/JNK/JUN activation has been reported to mediate resistance to MEK inhibitors (Avivar-Valderas, A. et al. (2018); Maher, C.A. et al. (2009)). We thus examined if RAD51AP1-DYRK4 and wtRAD51AP1 differentially modulate these survival pathways following MEK inhibition. To test this, we treated the engineered T47D cells with 0.5uM of trametinib or vehicle for 24 hours, to assess the early signaling changes following trametinib treatment. […] In contrast, this compensatory signaling was activated in T47D cells overexpressing wtRAD51AP1 following MEK inhibition (FIG. 7A). In addition, RAD51AP1-DYRK4 also repressed MAP3K1 protein level and JNK-JUN phosphorylation under MEK inhibition.
(§5) Western blot. For immunoblot analysis, E9-E2 and wtRAD51AP1 expression was induced in transduced T47D cells with 200 ng/ml doxycycline for one week. Total proteins were extracted by homogenizing the cells in RIPA Lysis Buffer (Sigma-Aldrich), supplemented with complete protease inhibitor cocktail tablet (Roche Diagnostics), 50 mM beta-Glycerophosphate, 1 mM sodium orthovanadate, 1 mM sodium fluoride, and 1 mM PMSF. Thirty micrograms of protein extracts were denatured in sample buffer, separated by SDS-PAGE, and transferred onto a nitrocellulose membrane (Invitrogen). The membranes were blocked and incubated overnight at 4° C. with primary antibodies. […]

[4] = test system: HCC1937 cells; assay: Clonogenic assay, HCC1937 cells; conditions: HCC1937 overexpressing RAD51AP1-DYRK4, compared to MCF7, HCC38, HCC1428, and ZR-75-30 cell lines
Procedure: as §3, §2

[5] = test system: HER2/PI3K/AKT/Raptor activation; assay: Western blot of engineered T47D cells after trametinib: HER2/PI3K/AKT/Raptor; conditions: 0.5uM trametinib, 24 hours
Procedure: as §4, §5

[6] = test system: T47D cells inducibly expressing wtRAD51AP1; assay: Clonogenic assay, T47D cells inducibly expressing wtRAD51AP1; conditions: induction of wtRAD51AP1 expression
Procedure: as §1
Clonogenic assay. The E9-E2 and wtRAD51AP1 expressing T47D cells were seeded at a density of 1000 cells/well in a 6-well plate with or without 200 ng/ml doxycycline treatment and incubated for 14-21 days. The colonies were stained with 0.5% crystal violet in 50% ethanol and counted using GelCount (Oxford Optronix Ltd.). The Trametinib (MEKi) and Lapatinib (EGFR/HER2 inhibitor) used for in vitro therapeutic studies were purchased from Selleck Chemicals. […] The area and intensity of each well was measured using Image J. with Colony Area Plug In.

[7] = T47D cells overexpressing RAD51AP1-DYRK4

SMILES | therapeutic benefit of lapatinib alone (clonogenic assay) ([1]; engineered T47D cells) | therapeutic benefit of lapatinib in combination with trametinib (clonogenic assay) ([1]; engineered T47D cells, combination with trametinib) | therapeutic effect of lapatinib alone (clonogenic assay) ([2]; MDAMB361, HER2 positive) | therapeutic effect of lapatinib in combination with trametinib (clonogenic assay) ([2]; MDAMB361, combination with trametinib) | MAP3K1/JNK/JUN signaling following MEK inhibition (Western blot) ([3]; T47D cells ectopically expressing wtRAD51AP1) | MAP3K1 protein level and JNK-JUN phosphorylation under MEK inhibition (Western blot) [3, 7] | sensitivity to trametinib (clonogenic assay, cell viability) ([1]; T47D cells, doxycycline-induced ectopic RAD51AP1-DYRK4 (E9-E2) expression vs absence of induction) | sensitivity to trametinib treatment (clonogenic assay) [4] | HER2/PI3K/AKT/Raptor activation under MEK inhibition (Western blot) [5, 7] | compensatory HER2/PI3K/AKT/Raptor signaling following MEK inhibition (Western blot) ([5]; T47D cells overexpressing wtRAD51AP1) | increased sensitivity to trametinib (clonogenic assay, cell viability) [6] | increased sensitivity to trametinib (clonogenic assay, cell viability) ([6]; listed as Trametinib) | sensitivity to trametinib treatment (clonogenic assay) ([2]; MDAMB361 overexpressing RAD51AP1-DYRK4, compared to MCF7, HCC38, HCC1428, and ZR-75-30 cell lines)
CS(=O)(=O)CCNCc1ccc(-c2ccc3ncnc(Nc4ccc(OCc5cccc(F)c5)c(Cl)c4)c3c2)o1 [lapatinib, Lapatinib] | did not result in additional therapeutic benefits; also recorded: did not show additional therapeutic benefits | did not result in additional therapeutic benefits; also recorded: did not show additional therapeutic benefits | highly resistant; also recorded: resistance | highly sensitive | – | – | – | – | – | – | – | – | –
CC(=O)Nc1cccc(-n2c(=O)n(C3CC3)c(=O)c3c(Nc4ccc(I)cc4F)n(C)c(=O)c(C)c32)c1 [trametinib] | – | – | – | – | did not observe activation | repressed | significantly increased sensitivity | markedly higher sensitivity | attenuates | activated; also recorded: compensatory activation | not observed | not | markedly higher sensitivity
